Assays:
Assay in all cases: radiometric filter-binding kinase assay
[1] = molecular target: CSNK1D (human) (UniProt P48730)
[2] = molecular target: FLT1 (human) (UniProt P17948)
[3] = molecular target: MAPK8 (human) (UniProt P45983)
[4] = molecular target: CLK2 (human) (UniProt P49760)
[5] = molecular target: BRSK2 (human) (UniProt Q8IWQ3)
[6] = molecular target: CSK (human) (UniProt P41240)
[7] = molecular target: EPHA4 (human) (UniProt P54764)
[8] = molecular target: PLK1 (human) (UniProt P53350)
[9] = molecular target: MAP3K7 TAB1 (human) (UniProt Q15750+O43318)
[10] = molecular target: TTK (human) (UniProt P33981)
[11] = molecular target: PIM1 (human) (UniProt P11309)
[12] = molecular target: MARK4 (human) (UniProt Q96L34)
[13] = molecular target: SYK (human) (UniProt P43405)
[14] = molecular target: JAK2 JH1 JH2 (human) (UniProt O60674)
[15] = molecular target: AURKA (human) (UniProt O14965)
[16] = molecular target: RIPK2 (human) (UniProt O43353)
[17] = molecular target: EPHB2 (human) (UniProt P29323)
[18] = system: RPS6KB1 (human), P23443 [T412E]
[19] = molecular target: MYLK (human) (UniProt Q15746)
[20] = molecular target: TBK1 (human) (UniProt Q9UHD2)
[21] = system: SGK1 (human), O00141 [S422D]
[22] = system: PAK2 (human), Q13177 [T402E]
[23] = molecular target: CDK2 CCNA2 (human) (UniProt P20248+P24941)
[24] = molecular target: MELK (human) (UniProt Q14680)
[25] = molecular target: RPS6KA3 KD1 KD2 (human) (UniProt P51812)
[26] = molecular target: BRSK1 (human) (UniProt Q8TDC3)
[27] = molecular target: IRAK4 (human) (UniProt Q9NWZ3)
[28] = molecular target: PIM3 (human) (UniProt Q86V86)
[29] = molecular target: MAPK12 (human) (UniProt P53778)
[30] = molecular target: MAP2K2 (human) (UniProt P36507)
[31] = molecular target: MAP3K11 (human) (UniProt Q16584)
[32] = molecular target: INSRR (human) (UniProt P14616)
[33] = molecular target: MAPKAPK3 (human) (UniProt Q16644)
[34] = molecular target: FGFR1 (human) (UniProt P11362); conditions: compound 1.0 µM
[35] = molecular target: INSR (human) (UniProt P06213)

Chain of PAK2 (human), Q13177 [T402E] (Q13177 whole entry T402E, looked up): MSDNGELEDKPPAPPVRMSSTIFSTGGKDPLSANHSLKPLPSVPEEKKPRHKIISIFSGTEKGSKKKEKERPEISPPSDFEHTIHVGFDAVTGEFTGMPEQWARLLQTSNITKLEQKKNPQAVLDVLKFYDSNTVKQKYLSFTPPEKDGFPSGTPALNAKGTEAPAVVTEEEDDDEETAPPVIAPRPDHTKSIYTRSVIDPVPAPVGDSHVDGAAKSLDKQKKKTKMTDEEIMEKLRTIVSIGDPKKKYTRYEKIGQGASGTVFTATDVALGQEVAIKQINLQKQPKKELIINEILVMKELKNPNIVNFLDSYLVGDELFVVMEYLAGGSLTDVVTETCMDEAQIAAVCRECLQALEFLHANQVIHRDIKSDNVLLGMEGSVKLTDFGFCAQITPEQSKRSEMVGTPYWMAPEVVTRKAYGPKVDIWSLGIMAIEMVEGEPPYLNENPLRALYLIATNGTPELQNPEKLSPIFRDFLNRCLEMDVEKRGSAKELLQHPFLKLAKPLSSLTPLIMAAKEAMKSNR
Chain of TTK (human) (P33981 whole entry, looked up): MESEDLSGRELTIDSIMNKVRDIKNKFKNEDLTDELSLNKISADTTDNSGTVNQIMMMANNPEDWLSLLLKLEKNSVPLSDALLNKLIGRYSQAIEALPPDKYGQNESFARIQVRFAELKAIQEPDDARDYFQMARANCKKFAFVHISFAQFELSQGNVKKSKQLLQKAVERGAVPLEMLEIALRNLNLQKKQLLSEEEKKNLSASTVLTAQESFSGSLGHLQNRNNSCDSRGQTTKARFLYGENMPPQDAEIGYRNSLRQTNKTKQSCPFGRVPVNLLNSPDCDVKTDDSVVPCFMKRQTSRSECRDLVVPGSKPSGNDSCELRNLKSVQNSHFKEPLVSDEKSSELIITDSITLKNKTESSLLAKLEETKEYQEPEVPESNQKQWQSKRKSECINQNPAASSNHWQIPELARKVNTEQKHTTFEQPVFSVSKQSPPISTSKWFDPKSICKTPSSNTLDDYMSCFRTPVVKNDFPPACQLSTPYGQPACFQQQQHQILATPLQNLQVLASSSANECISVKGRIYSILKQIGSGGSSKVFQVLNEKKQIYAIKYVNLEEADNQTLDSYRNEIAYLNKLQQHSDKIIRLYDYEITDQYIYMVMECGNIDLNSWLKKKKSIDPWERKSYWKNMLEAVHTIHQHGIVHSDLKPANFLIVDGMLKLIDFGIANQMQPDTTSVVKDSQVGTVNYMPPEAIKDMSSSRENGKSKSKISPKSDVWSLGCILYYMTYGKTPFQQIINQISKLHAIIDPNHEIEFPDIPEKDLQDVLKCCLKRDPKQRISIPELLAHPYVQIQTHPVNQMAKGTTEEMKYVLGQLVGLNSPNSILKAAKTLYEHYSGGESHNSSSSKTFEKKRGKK
Chain of MAPK8 (human) (P45983 whole entry, looked up): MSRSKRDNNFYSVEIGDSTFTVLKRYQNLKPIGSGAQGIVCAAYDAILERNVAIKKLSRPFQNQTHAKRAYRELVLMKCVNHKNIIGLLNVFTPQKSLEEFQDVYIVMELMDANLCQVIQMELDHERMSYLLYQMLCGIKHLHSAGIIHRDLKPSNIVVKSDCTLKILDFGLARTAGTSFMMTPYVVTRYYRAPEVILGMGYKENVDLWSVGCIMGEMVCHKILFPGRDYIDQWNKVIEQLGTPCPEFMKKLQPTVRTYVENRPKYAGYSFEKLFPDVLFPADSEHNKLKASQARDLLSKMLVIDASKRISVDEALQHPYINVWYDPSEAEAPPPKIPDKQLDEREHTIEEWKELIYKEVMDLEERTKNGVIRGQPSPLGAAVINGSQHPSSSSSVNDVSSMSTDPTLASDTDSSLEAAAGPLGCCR
Chain of MAP3K11 (human) (Q16584 whole entry, looked up): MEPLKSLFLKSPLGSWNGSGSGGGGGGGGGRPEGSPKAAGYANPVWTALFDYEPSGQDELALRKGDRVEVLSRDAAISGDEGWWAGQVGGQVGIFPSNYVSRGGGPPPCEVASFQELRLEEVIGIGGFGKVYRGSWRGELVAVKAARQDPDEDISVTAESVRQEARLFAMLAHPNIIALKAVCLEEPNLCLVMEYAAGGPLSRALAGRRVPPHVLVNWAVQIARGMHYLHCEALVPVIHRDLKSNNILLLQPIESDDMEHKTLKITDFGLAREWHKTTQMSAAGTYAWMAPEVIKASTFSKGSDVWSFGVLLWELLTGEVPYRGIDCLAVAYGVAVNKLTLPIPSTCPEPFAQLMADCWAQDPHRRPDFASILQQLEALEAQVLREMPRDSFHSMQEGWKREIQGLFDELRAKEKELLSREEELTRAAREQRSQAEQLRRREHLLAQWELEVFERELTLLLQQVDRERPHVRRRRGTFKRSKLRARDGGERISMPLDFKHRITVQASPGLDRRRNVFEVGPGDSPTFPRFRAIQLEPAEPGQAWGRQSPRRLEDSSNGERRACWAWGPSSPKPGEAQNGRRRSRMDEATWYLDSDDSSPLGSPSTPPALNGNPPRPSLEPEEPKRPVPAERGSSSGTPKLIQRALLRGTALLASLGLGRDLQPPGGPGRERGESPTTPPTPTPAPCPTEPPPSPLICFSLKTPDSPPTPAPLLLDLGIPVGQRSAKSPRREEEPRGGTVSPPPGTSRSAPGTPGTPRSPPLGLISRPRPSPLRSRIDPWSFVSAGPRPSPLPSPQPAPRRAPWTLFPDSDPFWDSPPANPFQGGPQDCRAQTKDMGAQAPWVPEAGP
Chain of JAK2 JH1 JH2 (human) (O60674 whole entry, looked up): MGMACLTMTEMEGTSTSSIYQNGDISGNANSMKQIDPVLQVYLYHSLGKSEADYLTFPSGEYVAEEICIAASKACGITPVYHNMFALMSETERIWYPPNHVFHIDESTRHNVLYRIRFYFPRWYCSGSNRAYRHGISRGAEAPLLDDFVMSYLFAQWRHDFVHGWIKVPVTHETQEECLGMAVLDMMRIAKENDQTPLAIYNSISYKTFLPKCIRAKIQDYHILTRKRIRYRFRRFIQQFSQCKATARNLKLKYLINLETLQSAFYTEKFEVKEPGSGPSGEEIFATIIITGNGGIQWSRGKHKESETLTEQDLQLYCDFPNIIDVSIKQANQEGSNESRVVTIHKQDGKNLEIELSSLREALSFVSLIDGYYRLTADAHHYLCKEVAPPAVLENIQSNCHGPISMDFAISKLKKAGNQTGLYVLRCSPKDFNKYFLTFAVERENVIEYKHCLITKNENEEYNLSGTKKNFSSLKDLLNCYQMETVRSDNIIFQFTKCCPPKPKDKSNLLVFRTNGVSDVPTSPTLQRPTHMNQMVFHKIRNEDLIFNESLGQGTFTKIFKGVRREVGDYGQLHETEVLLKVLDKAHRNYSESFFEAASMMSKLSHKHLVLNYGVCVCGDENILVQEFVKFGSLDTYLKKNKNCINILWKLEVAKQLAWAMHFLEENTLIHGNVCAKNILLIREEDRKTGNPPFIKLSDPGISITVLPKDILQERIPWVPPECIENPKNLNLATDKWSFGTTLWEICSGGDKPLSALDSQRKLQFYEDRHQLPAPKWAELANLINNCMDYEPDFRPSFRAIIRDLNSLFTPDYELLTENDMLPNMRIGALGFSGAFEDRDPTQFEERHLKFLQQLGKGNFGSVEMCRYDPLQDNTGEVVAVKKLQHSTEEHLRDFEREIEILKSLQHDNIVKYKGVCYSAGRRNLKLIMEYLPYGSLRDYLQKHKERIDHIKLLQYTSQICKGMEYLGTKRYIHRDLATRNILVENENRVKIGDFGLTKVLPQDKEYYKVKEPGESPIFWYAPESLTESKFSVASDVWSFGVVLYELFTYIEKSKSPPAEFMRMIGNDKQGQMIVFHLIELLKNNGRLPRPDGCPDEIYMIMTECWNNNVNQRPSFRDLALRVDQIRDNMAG
Chain of EPHB2 (human) (P29323 whole entry, looked up): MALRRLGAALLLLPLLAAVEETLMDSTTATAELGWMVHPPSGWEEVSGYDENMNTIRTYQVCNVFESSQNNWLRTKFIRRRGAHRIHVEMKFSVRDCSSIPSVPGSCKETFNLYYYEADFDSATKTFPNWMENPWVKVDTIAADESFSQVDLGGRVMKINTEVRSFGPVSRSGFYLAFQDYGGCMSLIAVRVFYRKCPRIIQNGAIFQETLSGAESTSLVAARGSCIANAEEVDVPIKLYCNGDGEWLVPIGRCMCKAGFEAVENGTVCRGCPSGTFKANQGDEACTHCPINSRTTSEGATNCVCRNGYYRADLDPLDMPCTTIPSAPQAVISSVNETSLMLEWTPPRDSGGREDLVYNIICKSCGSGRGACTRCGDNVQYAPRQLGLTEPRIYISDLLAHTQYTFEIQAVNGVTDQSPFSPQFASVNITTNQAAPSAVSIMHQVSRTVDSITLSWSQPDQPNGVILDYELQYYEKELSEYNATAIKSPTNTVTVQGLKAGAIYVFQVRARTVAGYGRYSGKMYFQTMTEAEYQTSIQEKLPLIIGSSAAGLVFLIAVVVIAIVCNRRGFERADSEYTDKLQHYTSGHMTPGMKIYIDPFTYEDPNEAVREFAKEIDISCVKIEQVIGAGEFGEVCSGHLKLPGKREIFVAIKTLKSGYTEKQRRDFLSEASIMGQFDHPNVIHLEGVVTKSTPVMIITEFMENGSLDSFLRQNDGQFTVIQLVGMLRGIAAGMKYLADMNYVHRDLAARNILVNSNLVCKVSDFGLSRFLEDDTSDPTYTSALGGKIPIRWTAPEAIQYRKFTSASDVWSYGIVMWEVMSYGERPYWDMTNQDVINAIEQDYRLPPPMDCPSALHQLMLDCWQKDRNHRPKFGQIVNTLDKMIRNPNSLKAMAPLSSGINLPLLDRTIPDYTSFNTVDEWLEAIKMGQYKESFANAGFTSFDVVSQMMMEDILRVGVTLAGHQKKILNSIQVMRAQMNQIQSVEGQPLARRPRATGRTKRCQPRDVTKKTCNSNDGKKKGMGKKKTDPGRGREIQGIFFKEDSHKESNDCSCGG

Structure (SMILES): O=C(NOCC(O)CO)c1ccc(F)c(F)c1Nc1ccc(I)cc1Cl (stereo not drawn)
- residual activity ([1]; compound 1.0 µM): 96%
- residual activity ([1]; compound 10.0 µM): 97%
- residual activity ([2]; compound 1.0 µM): 98%
- residual activity ([2]; compound 10.0 µM): 42%
- residual activity ([3]; compound 1.0 µM): 87%
- residual activity ([3]; compound 10.0 µM): 93%
- residual activity ([4]; compound 1.0 µM): 94%
- residual activity ([4]; compound 10.0 µM): 91%
- residual activity ([5]; compound 1.0 µM): 108%
- residual activity ([5]; compound 10.0 µM): 105%
- residual activity ([6]; compound 1.0 µM): 89%
- residual activity ([6]; compound 10.0 µM): 88%
- residual activity ([7]; compound 1.0 µM): 97%
- residual activity ([7]; compound 10.0 µM): 100%
- residual activity ([8]; compound 1.0 µM): 97%
- residual activity ([8]; compound 10.0 µM): 93%
- residual activity ([9]; compound 1.0 µM): 91%
- residual activity ([9]; compound 10.0 µM): 92%
- residual activity ([10]; compound 1.0 µM): 105%
- residual activity ([10]; compound 10.0 µM): 98%
- residual activity ([11]; compound 1.0 µM): 102%
- residual activity ([11]; compound 10.0 µM): 71%
- residual activity ([12]; compound 1.0 µM): 119%
- residual activity ([12]; compound 10.0 µM): 108%
- residual activity ([13]; compound 10.0 µM): 77%
- residual activity ([14]; compound 1.0 µM): 5%
- residual activity ([14]; compound 10.0 µM): 8%
- residual activity ([15]; compound 1.0 µM): 103%
- residual activity ([15]; compound 10.0 µM): 104%
- residual activity ([16]; compound 1.0 µM): 86%
- residual activity ([16]; compound 10.0 µM): 84%
- residual activity ([17]; compound 10.0 µM): 77%
- residual activity ([18]; compound 1.0 µM): 94%
- residual activity ([18]; compound 10.0 µM): 80%
- residual activity ([19]; compound 10.0 µM): 86%
- residual activity ([20]; compound 1.0 µM): 111%
- residual activity ([20]; compound 10.0 µM): 99%
- residual activity ([21]; compound 1.0 µM): 71%
- residual activity ([21]; compound 10.0 µM): 111%
- residual activity ([22]; compound 1.0 µM): 95%
- residual activity ([22]; compound 10.0 µM): 80%
- residual activity ([23]; compound 1.0 µM): 95%
- residual activity ([23]; compound 10.0 µM): 97%
- residual activity ([24]; compound 1.0 µM): 109%
- residual activity ([24]; compound 10.0 µM): 106%
- residual activity ([25]; compound 1.0 µM): 98%
- residual activity ([25]; compound 10.0 µM): 89%
- residual activity ([26]; compound 1.0 µM): 98%
- residual activity ([26]; compound 10.0 µM): 101%
- residual activity ([27]; compound 1.0 µM): 77%
- residual activity ([27]; compound 10.0 µM): 91%
- residual activity ([28]; compound 1.0 µM): 94%
- residual activity ([28]; compound 10.0 µM): 65%
- residual activity ([29]; compound 1.0 µM): 80%
- residual activity ([29]; compound 10.0 µM): 96%
- residual activity ([30]; compound 1.0 µM): 55%
- residual activity ([30]; compound 10.0 µM): 23%
- residual activity ([31]; compound 1.0 µM): 83%
- residual activity ([31]; compound 10.0 µM): 89%
- residual activity ([32]; compound 1.0 µM): 84%
- residual activity ([33]; compound 1.0 µM): 94%
- residual activity ([33]; compound 10.0 µM): 77%

Structure (SMILES): Cc1ccc(=O)n(-c2ccccc2)c1
- residual activity ([1]; compound 1.0 µM): 97%
- residual activity ([1]; compound 10.0 µM): 102%
- residual activity [34]: 101%
- residual activity ([2]; compound 1.0 µM): 100%
- residual activity ([2]; compound 10.0 µM): 107%
- residual activity ([3]; compound 1.0 µM): 85%
- residual activity ([3]; compound 10.0 µM): 87%
- residual activity ([4]; compound 1.0 µM): 120%
- residual activity ([4]; compound 10.0 µM): 112%
- residual activity ([35]; compound 1.0 µM): 110%
- residual activity ([35]; compound 10.0 µM): 103%
- residual activity ([5]; compound 1.0 µM): 106%
- residual activity ([5]; compound 10.0 µM): 96%
- residual activity ([6]; compound 1.0 µM): 98%
- residual activity ([6]; compound 10.0 µM): 87%
- residual activity ([7]; compound 1.0 µM): 106%
- residual activity ([7]; compound 10.0 µM): 99%
- residual activity ([8]; compound 1.0 µM): 96%
- residual activity ([8]; compound 10.0 µM): 82%
- residual activity ([10]; compound 1.0 µM): 73%
- residual activity ([10]; compound 10.0 µM): 76%
- residual activity ([11]; compound 1.0 µM): 105%
- residual activity ([11]; compound 10.0 µM): 106%
- residual activity ([12]; compound 10.0 µM): 74%
- residual activity ([13]; compound 1.0 µM): 99%
- residual activity ([13]; compound 10.0 µM): 103%
- residual activity ([14]; compound 1.0 µM): 103%
- residual activity ([14]; compound 10.0 µM): 90%
- residual activity ([15]; compound 1.0 µM): 106%
- residual activity ([15]; compound 10.0 µM): 107%
- residual activity ([16]; compound 1.0 µM): 86%
- residual activity ([16]; compound 10.0 µM): 87%
- residual activity ([17]; compound 1.0 µM): 120%
- residual activity ([17]; compound 10.0 µM): 109%
- residual activity ([18]; compound 1.0 µM): 115%
- residual activity ([18]; compound 10.0 µM): 111%
- residual activity ([19]; compound 1.0 µM): 102%
- residual activity ([19]; compound 10.0 µM): 89%
- residual activity ([20]; compound 1.0 µM): 99%
- residual activity ([20]; compound 10.0 µM): 91%
- residual activity ([21]; compound 1.0 µM): 113%
- residual activity ([21]; compound 10.0 µM): 100%
- residual activity ([22]; compound 1.0 µM): 101%
- residual activity ([22]; compound 10.0 µM): 100%
- residual activity ([23]; compound 1.0 µM): 103%
- residual activity ([23]; compound 10.0 µM): 97%
- residual activity ([24]; compound 1.0 µM): 94%
- residual activity ([24]; compound 10.0 µM): 98%
- residual activity ([25]; compound 1.0 µM): 98%
- residual activity ([25]; compound 10.0 µM): 94%
- residual activity ([26]; compound 1.0 µM): 95%
- residual activity ([26]; compound 10.0 µM): 93%
- residual activity ([27]; compound 1.0 µM): 83%
- residual activity ([27]; compound 10.0 µM): 95%
- residual activity ([28]; compound 1.0 µM): 111%
- residual activity ([28]; compound 10.0 µM): 95%
- residual activity ([29]; compound 1.0 µM): 109%
- residual activity ([29]; compound 10.0 µM): 96%
- residual activity ([30]; compound 1.0 µM): 58%
- residual activity ([30]; compound 10.0 µM): 35%
- residual activity ([31]; compound 1.0 µM): 108%
- residual activity ([31]; compound 10.0 µM): 98%
- residual activity ([32]; compound 1.0 µM): 104%
- residual activity ([32]; compound 10.0 µM): 99%
- residual activity ([33]; compound 1.0 µM): 92%
- residual activity ([33]; compound 10.0 µM): 84%
